Tests used:
mussel = test: Mussel plaque adhesion to coated plates (Instron tensile pull of individual plaques); type: in vivo; design: Total Animal Removal Force: unit not given here; conditions: for total animal removal force (in words): Tables 4A and 4B, upon addition of antioxidant, versus DBT control; for mussel adhesion (in words): antioxidant or reducing agent in coating; for force to detach animal: estimated from number of plaques and adhesion per plaque, primer control ~5.6 N; for # of plaques (average): primer control 11.3
Text: In order to obtain insights on the antifouling potential of a given coating, we would benefit from a rapid laboratory method to quantify adhesion. Coatings that show decreased adhesion in such a laboratory test can then be sent to other investigators for assays with different organisms as well as field testing. We have recently developed a method for determining the adhesion strength of mussels to surfaces. The adhesive system of mussels lends itself well to precise force measurements. Mussels are placed on a candidate coating for adhesive deposition. The area (m^2) of each plaque is determined by digital photography and use of image analysis software. Individual plaques are then pulled from the surface using clamps in an Instron materials testing system (as illustrated in FIG. 3). […] Beyond simply looking for new antifouling coatings to decrease mussel adhesion, we also take note of the adhesive failure modes on new coatings versus controls. […] Thread breakage is also possible but minimized to nearly zero with our adhesion method. When mussels adhere strongly to a given surface, more cohesive failure is often observed or a mix of both cohesive and adhesive failure. If we inhibit curing of the glue with radical inhibitors on the surface, we may find that more adhesive or cohesive failure is observed. Overall, use of this mussel adhesion assay provides quantitative data on the ability of a candidate antifouling coating to inhibit bioadhesion. Here we will use this assay on each coating. Coatings that decrease mussel adhesion substantially will be carried on to further testing. As an operative example, the animal adheres to a given surface (e.g., aluminum plate). […] The animal is removed by cutting the connecting threads at the shell line. At this point, we are left with the surface, an adhesive plaque, and the thread. Adhesion forces must be normalized for surface contact area. Complete adhesion measurement methods includes obtaining data on the plaque-surface contact area. Mussel plaques are typically not perfect circles or ovals. The small size (approximately 2 mm diameter) and irregular shape may complicate obtaining accurate areas. Prior to adhesive testing, a photograph is taken of the plaque. A Nikon (Melville, N.Y., USA) […] digital camera fitted with a Nikon 50 mm f-1.8 lens and a Kenko 12 mm extension tube is held on a small tripod while the lens is oriented directly onto the plate below. The lens is approximately 18 cm above the plates being photographed. Typical exposure settings include f=3.5, 1/15 second shutter speed, and 200 ISO. Ambient light should be sufficient to capture the images. Photographs are taken in JPEG format at maximum resolution ( 3.3 MB per image). Individual plaques are numbered using a marker prior to taking the photograph so that the numbers are included in the image. These labels allow correlation of specific plaques to tensile strength data. At the time of photographing the plaques, area standards are also photographed. The digital images of the plates can be later revisited for calculating surface area. Image analysis software counts pixels within the plaque, relative to a standard, to provide area (m^2). […] Plates bearing plaques and threads are clamped to the base of the Instronl 5544 materials testing system. A custom designed stainless steel base is fabricated for these experiments. The base is a circular platform 15 cm in diameter with a post and pinhole on the bottom, allowing bolting into the bottom mount of the Instron. Test plates with adhesive are fastened to this base with two Quick-Grip Handi Clamps (Wilmington, Ohio, USA) holding down opposite corners. The Instron is fitted with one screw-action grip (part 2710-004) on the top and a 5N load cell. Detachment force measurements begin by lowering the grips directly over an individual plaque. The thread is lifted by hand and is placed in between the grips. The grips are then tightened over the thread. […]

[1] = Water contact angle of coatings; type: physicochemical; conditions: metal primer coating with BHT; metal primer coating alone approximately 106°
Method: In some cases added solvent helps the dissolution. We use the same solvent already in the commercial coating (e.g., xylenes or acetone). After curing is complete, the resulting coating is inspected and compared to the control of a similar coating without the adhesion inhibitor. If we observe a lack of curing, crystallization of inhibitors on the surface, lower coating modulus, or color changes the formulation may be discarded from consideration. Water contact angles are then measured for both the coatings and all controls (e.g., coating without inhibitor). Typically the coatings have very similar water contact angles as the controls (e.g., similar to within ˜5°). Large differences in contact angles will also lead to discarding a candidate antifouling formulation. A further narrowing of candidate coatings then takes place. We examine water contact angles (i.e., surface energy) of the evaporative coatings with an antioxidant versus without an added inhibitor. Any coatings with added inhibitor that changes water contact angle by more than 5° may be eliminated from further testing. […] It is envisioned that these modifications are not indicative of whether a particular reductive coating is an effective antifouling coating. […] As part of this selection process, we have approximately twenty (20) coatings to examine, into which we could place approximately eight (8) different antioxidants.

[2] = 2.5% additive in primer, Table 4B
[3] = 25% additive in primer, Table 4A
[4] = 25% additive in primer, Table 4C, recent data with variations versus Table 4A
[5] = Coating: 2.5% (w/w), Table 5B, FIG. 6
[6] = Coating: 25% (w/w), Table 5A, FIG. 5
[7] = primer + 2.5% BHT (w/w) coating, Table 3
[8] = primer + 25% BHT (w/w) coating, Table 3

SMILES | % Adhesive Failure (mussel; [2]) [%] | Adhesive Failure (mussel; [2]) [kPa] | Mean Adhesion (mussel; [2]) [kPa] | Plaques/Mussel (mussel; [2]) | Total Animal Removal Force (mussel; [2]) | % Adhesive Failure (mussel; [3]) [%] | Adhesive Failure (mussel; [3]) [kPa] | Mean Adhesion (mussel; [3]) [kPa] | Plaques/Mussel (mussel; [3]) | Total Animal Removal Force (mussel; [3]) | Adhesion (mussel; [4]) [kPa] | Average Force (mussel; [4]) [N] | Average Adhesion (kPa) with 99% CI (mussel; [5]) [kPa] | Average Adhesion (kPa) with 99% CI (mussel; [6]) [kPa] | total animal removal force (in words) (mussel) | mussel adhesion (in words) (mussel) | further results
CCOc1ccc2c(c1)C(C)=CC(C)(C)N2 [6-ethoxy, 6-ethoxy-1,2-dihydro-2,2,4-trimethylquinoline] | 90.9 | 33.6 | 33.9 | 22.3 | 749 | 76.4 | 33.7 | 34.6 | 18.4 | 620 | 21.23 | 0.0948 | 82.60 ± 4.42 | 58.22 ± 6.73 | decreases significantly | reduce mussel adhesion | 
CC(=O)C(=O)O [pyruvic acid] |  |  |  |  |  |  |  |  |  |  |  |  |  |  |  | reduce mussel adhesion | 
COc1ccccc1 [anisole] | 21.1 | 42.0 | 39.7 | 20.1 | 844 | 54 | 56.8 | 59.1 | 17.4 | 988 | 33.53 | 0.1686 | 90.03 ± 8.16 | 75.02 ± 5.39 | decreases significantly | reduce mussel adhesion | 
Cc1cc(C(C)(C)C)c(C)c(C(C)(C)C)c1 [DBT, reference compound] | 7.0 | 49.3 | 45.8 | 24.1 | 1430 | 31.6 | 57.3 | 53.1 | 17.2 | 986 | 47.07 | 0.2198 | 80.31 ± 5.08 | 106.34 ± 6.74 |  |  | 
CC(C)(C)c1cccc(O)c1C(C)(C)C [DTBP, 2,3-di-tert-butylphenol] | 17.6 | 56.9 | 66.5 | 30 | 1707 | 70.7 | 40.4 | 42.0 | 16.9 | 683 | 34.11 | 0.1902 | 89.88 ± 8.45 | 82.63 ± 5.24 | decreases significantly | reduce mussel adhesion | 
Cc1cc(C(C)(C)C)c(O)c(C(C)(C)C)c1 [BHT, butylated hydroxytoluene] | 66.7 | 41.5 | 41.5 | 17.4 | 722 | 44.7 | 37.0 | 39.5 | 11.1 | 411 | 37.08 | 0.1894 | 87.82 ± 4.98 | 90.24 ± 6.84 | decreases significantly |  | water contact angle [1]: approximately 108 °; average mussel adhesion (in words) (mussel; 2.5% and 25% BHT-in-primer coatings versus primer-only controls): decreases significantly; total force needed to remove a mussel (in words) (mussel; BHT in the coating, number of plaques combined with adhesion per plaque): drops by up to half; adhesive produced by the animals (in words) (mussel; BHT-containing panels versus primer-only controls): produce less adhesive; force to detach animal (mussel; [7]): ~3.4 N; # of plaques (average) (mussel; [7]): 9.6 plaques; Adhesion (mussel; primer + 2.5% BHT (w/w) coating, Table 3, primer control 184 ± 68 kPa): 135 ± 58 kPa; force to detach animal (mussel; [8]): ~2.2 N; # of plaques (average) (mussel; [8]): 5.2 plaques; Adhesion (mussel; primer + 25% BHT (w/w) coating, Table 3, primer control 184 ± 68 kPa): 110 ± 43 kPa

Reference: patent publication US20140076194A1, “ANTIFOULING BY ADHESION SUPPRESSION” (PURDUE RESEARCH FOUNDATION, priority 2011, published 2014)
